According to article PMC3458928, “Co-Factor Binding Confers Substrate Specificity to Xylose Reductase from Debaryomyces hansenii” (PLoS ONE, 2012):
Like-named read-outs stand apart in the source and are kept apart here.

Legend:
DhXR H109A mutant = DhXR H109A mutant (Debaryomyces hansenii, UniProt Q6BLI9, H109A); experiment: biochemical; type: binding
Description: (§1) Titrations of DhXR with ligands were examined by monitoring the intrinsic tryptophan fluorescence of DhXR using a Varian spectrofluorometer. Experiments were performed in indicated buffers as mentioned in the text. The excitation wavelength and emission wavelengths for monitoring DhXR-ligand interaction were 292 nm and 345 nm respectively. Slit widths were set to 5 nm for all experiments and PMT voltage was adjusted to get maximum signal for a given protein concentration. All experiments were done at 25.0±1°C. Initial readings of both the protein, Fprotein,0 and buffer, Fbuff,0 were taken, with F0 = Fprotein,0–Fbuff,0 defined as the initial fluorescence of the sample. The sample cuvette was then titrated with aliquots of ligands and mixed, and equilibrated for 3–4 minutes before measurement. Data points from five such measurements were averaged to obtain Fave,i. The relative fluorescence quenching upon sugar binding is defined as Qobs,i = (F0–Fave,i)/F0. All measurements were corrected for dilution, and inner filter effects.
(§2) Binding of ligands to DhXR was analyzed using two site binding model. [drawing 1] (1) where Q1 and Q2 are the fluorescence quenching corresponding to one and two ligands bound, respectively; L is concentration of free ligand in solution; K1,obs and K2,obs are association constants for the binding of the first and the second ligand molecule. Errors were calculated from fitting analysis of two independent experiments.
(§3) We tested the activity of all mutants and activities were normalized to the activity of wild type DhXR with respect to its D-xylose reducing activity.

DhXR K76A mutant = DhXR K76A mutant (Debaryomyces hansenii, UniProt Q6BLI9, K76A); experiment: biochemical; type: binding
Description: as §1, §2, §3

DhXR Y47A mutant = DhXR Y47A mutant (Debaryomyces hansenii, UniProt Q6BLI9, Y47A); experiment: biochemical; type: binding
Description: as §1, §2, §3

[1] = molecular target: apo-DhXR (wild type xylose reductase) (Debaryomyces hansenii, UniProt Q6BLI9); experiment: Tryptophan fluorescence quenching titration, ligand binding to apo-DhXR wild type; conditions: wild type apo-DhXR, 25 °C
Description: as §1, §2
We examined the binding of D-xylose, xylitol, and NADPH to apo-DhXR. Quenching of tryptophan fluorescence upon ligand binding was used as the signal for monitoring the extent of binding. Apo-DhXR was excited at 292 nm and emission of tryptophan fluorescence was scanned between 300–375 nm (Fig. S2). […] Intrinsic site-specific binding constants are estimated from the macroscopic binding constants obtained from fitting by removing the statistical factors as in eq (2). [drawing 2] (2)

holo-DhXR [2] = molecular target: T1, holo-DhXR (Debaryomyces hansenii, UniProt Q6BLI9); experiment: Single point specific activity of holo-DhXR towards different sugars; type: biochemical; conditions: saturated sugar concentration (100 mM), 40 °C
Description: (§4) The xylose reductase activities of recombinant DhXR was determined spectrophotometrically by monitoring the change in A340 upon reduction of NADPH to NADP. The standard assay mixture contained 50 mM KPO4, pH 7.0, 100 mM sugar substrate, 0.3 mM NADPH, 0.18 µM of enzyme. Single point activity studies were performed at 40°C and all reactions were started by the addition of enzyme to a final volume of 0.8 ml (in standard assay condition). […] Errors for the activity assays were calculated from triplicate experiments. The kinetic parameters were determined using a range of substrate concentrations. Here, the reaction was performed at 25°C and assay mixture contained 50 mM KPO4, pH 7.0, 0.15 mM NADPH, 0.18 µM of enzyme and varying substrate concentrations. Steady state kinetics data were fit to Michaelis-Menten model, v = Vmax * [S]/([S]+Km), where Vmax, maximal velocity; Km, Michaelis-Menten constant; S, substrate concentration, and v, initial velocity.

holo-DhXR [3] = molecular target: T1, holo-DhXR; experiment: Steady state kinetics of carbonyl substrate reduction by holo-DhXR (A340, NADPH); type: biochemical
Description: as §4
To understand the specificity determining component in catalysis, we studied the steady state kinetics of holo-DhXR towards different carbonyl substrates. […] Therefore, all kinetic data analyzed fitting to Michaelis-Menten model by Non-Linear Least Squares method. (Fig. 4A). Steady state kinetic parameters are also determined for other sugars (table 3, Fig. 4B). […] We compared the Km/Kd ratio as an indicator of net affinity loss for a given substrate (Fig. S5).
In order to further verify that holoenzyme discriminates between substrate and non-substrate sugars, we challenged the catalysis of D-xylose by adding non-substrate sugars during kinetic experiments. […] We studied the kinetics of D-xylose reduction by holo-DhXR in the presence of fixed concentration (∼40 mM) of three sugars (Fig. 4C).

holo-DhXR [4] = molecular target: T1, holo-DhXR; experiment: Specific activity of DhXR with 100 mM D-xylose in presence of competing sugars; type: biochemical
Description: as §4
Assays were performed at 100 mM D-xylose and concentrations of competing sugars were varied (25 mM to 400 mM). […] Both DhXR and NADPH (20.0 µM) are pre-incubated and fluorescence signal was monitored until no further change. […] It should be noted that D-xylose is the substrate and is very likely to be reduced soon after binding.

[5] = molecular target: Xylose Reductase from Debaryomyces hansenii (Debaryomyces hansenii CBS767); experiment: SEC; purified DhXR, single peak at 52 mL; column calibrated with ferritin, catalase, aldolase, albumin and ovalbumin; estimated mass ~71 kDa
[6] = substrate: O=C[C@H](O)[C@@H](O)[C@H](O)CO; experiment: Steady state kinetics of carbonyl substrate reduction by holo-DhXR (A340, NADPH); type: biochemical, Debaryomyces hansenii; conditions: other: 25 °C, pH 7.0, 0.15 mM NADPH, 0.18 µM enzyme
[7] = 25 °C, pH 7.0, 0.15 mM NADPH, 0.18 µM enzyme

`OC[C@H]1O[C@@](CO)(O[C@H]2O[C@H](CO)[C@@H](O)[C@H](O)[C@H]2O)[C@@H](O)[C@@H]1O` [Sucrose, sucrose] was tested, and the Kd (DhXR H109A mutant) was 5 ± 0.2 mM, the “reduction in affinity versus wild type” value (DhXR H109A mutant; H109A) was “no reduction” and the Kd (DhXR K76A mutant) was 10 ± 1 mM. The Kd (DhXR Y47A mutant) was 11 ± 2 mM, the “reduction in affinity versus wild type” value (DhXR Y47A mutant; Y47A, first site) was roughly 2 fold and the Kd ([1]; Kd1,int, first site) was 7.3 ± 1 mM. For the same molecule, the Kd ([1]; Kd2,int, second site) was 19 ± 5 mM and the “reduction of holoenzyme activity compared with D-xylose” value (holo-DhXR [2]) was “more than 95%”.

Work on `OC[C@@H](O)[C@H](O)[C@@H](O)CO` [Xylitol, xylitol] yielded a Kd ([1]; first site, read-out: Kd1,int) of 8.2 ± 1 mM.

D-arabinose was tested, and the Kd (DhXR H109A mutant; H109A, first site, read-out: Kd1,int) was 28 ± 3 mM, the Kd (DhXR K76A mutant; K76A, first site, read-out: Kd1,int) was 34 ± 4 mM and the “reduction in affinity versus wild type” value (DhXR Y47A mutant; Y47A, first site) was 8–10 fold. It also gave a Kd (DhXR Y47A mutant; Y47A, first site, read-out: Kd1,int) of 66 ± 13 mM, a Kd ([1]; first site, read-out: Kd1,int) of 8.1 ± 1 mM and a Kd ([1]; second site, read-out: Kd2,int) of 100 ± 10 mM. For the same molecule, the Vmax (holo-DhXR [3]; [7]) was 127.2 ± 6.1 nmol/min, the k cat (holo-DhXR [3]; [7]) was 14.1 s⁻¹ and the “Km/Kd ratio (net affinity loss)” value (holo-DhXR [3]; Km of holoenzyme vs Kd of apoenzyme) was roughly 220 fold. For the same molecule, the “catalysis in steady state kinetic curves (in words)” value (holo-DhXR [3]; comparison of kinetic curves of different sugars) was “very weakly hydrolyzed”, the “Km relative to that of D-xylose” value (holo-DhXR [3]; fold higher) was 22 fold and the Specific activity (holo-DhXR [4]; 25 mM sugar added in 100 mM D-xylose reaction) was 69.4 ± 3.1 nmol/min. The Specific activity (holo-DhXR [4]; 100 mM sugar added in 100 mM D-xylose reaction) was 68.2 ± 3.7 nmol/min and the Specific activity (holo-DhXR [4]; 400 mM sugar added in 100 mM D-xylose reaction) was 66.5 ± 4.5 nmol/min.

Work on “Xylose Reductase from Debaryomyces hansenii (enzyme)” yielded a stoichiometry N [5] of 2.

B1: holo-DhXR (Debaryomyces hansenii CBS767) (protein)
chain: MSIKLNSGYDMPLVGFGCWKVDNDTCAATIYNAIKVGYRLFDAAQDYGNCKEIGEGINKALDEGLVARDELFITSKLWNSYHDPKNVELALKKVLSDMKLDYLDLFLIHFPIAFKFVPIEERYPPGFYCGDGDKFHYENVPLADTWKAMEKLTKSGKVKSIGISNFSGALIYDLLRSAEIKPAVLQIEHHPYLQQPRLVEYVQSQNIAITGYSSFGPQSFLELKHSKALDTPTLFEHKTIKSIANKNKKTPAQVLLRWASQRNIAVIPKSNNPDRLLQNLEVNDFDLSKEDFEEISKLDQELRFNNPWDWDKIPIFA
With B1 the Km [6] was 81 ± 6 mM, the Vmax [6] was 0.185 µmol/min and the kcat [6] was 20.6 s⁻¹. It also gave a kcat/Km [6] of 254 M⁻¹ s⁻¹.
